One test has as its target T1, human V1a receptor (Homo sapiens, UniProt P37288).
T1 construct: expressed in transfected cells; host or cells: CHO K1 (constitutively expressing modified aequorin)
Briefly: Cellular in vitro assay for determining the vasopressin receptor activity (aequorin luminescence). In kind it is cell-based. To be noted: CHO cell line transfected with the human V1a receptor; agonist [Arg8]-vasopressin; read-out: IC50 hV1a. From the text: (§1) B-1. Cellular In Vitro Assay for Determining the Vasopressin Receptor Activity
(§2) The identification of agonists and antagonists of the V1a and V2 vasopressin receptors from humans and rats and also the quantification of the activity of the substances described here took place using recombinant cell lines. These cells derive originally from a hamster ovary epithelial cell (Chinese Hamster Ovary, CHO K1, ATCC: American Type Culture Collection, Manassas, Va. 20108, USA). The test cell lines constitutively express a modified form of the calcium-sensitive photoprotein aequorin, which, after reconstitution with the cofactor coelenterazine, emits light when there are increases in the free calcium concentration (Rizzuto R., Simpson A. W., Brini M., Pozzan T.; Nature 358 (1992) 325-327). In addition, the cells are stably transfected with the human or rat V1a or V2 receptors. In the case of the Gs-coupling V2 receptors, the cells are stably transfected with a further gene, which codes for the promiscuous Gα16 protein (Amatruda T. T., Steele D. A., Slepak V. Z., Simon M. I., Proc. Nat. Acad. Sci. USA 88 (1991), 5587-5591), either independently or as a fusion gene. The resulting vasopressin receptor test cells react to stimulation of the recombinantly expressed vasopressin receptors by intracellular release of calcium ions, which can be quantified by the resulting aequorin luminescence using a suitable luminometer (Milligan G., Marshall F., Rees S., Trends in Pharmaco. Sci. 17 (1996) 235-237).
(§3) On the day before the assay, the cells are plated out in culture medium (DMEM, 10% FCS, 2 mM glutamine, 10 mM HEPES) in 384-well microtiter plates and kept in a cell incubator (96% humidity, 5% v/v carbon dioxide, 37° C.). On the day of the assay, the culture medium is replaced by a Tyrode solution (140 mM sodium chloride, 5 mM potassium chloride, 1 mM magnesium chloride, 2 mM calcium chloride, 20 mM glucose, 20 mM HEPES), which additionally contains the cofactor coelenterazine (50 μM), and the microtiter plate is then incubated for a further 3-4 hours. The test substances in various concentrations are placed for 10 to 20 minutes in the wells of the microtiter plate before the agonist [Arg8]-vasopressin is added, and the resulting light signal is measured immediately in the luminometer. The IC50 values are calculated using the GraphPad PRISM computer program (Version 3.02).
(§4) The table below lists representative IC50 values for the compounds of the invention on the cell line transfected with the human V1a or V2 receptor: […]

The target in another test is T2, human V2 receptor (Homo sapiens, UniProt P30518).
T2 construct: expressed in transfected cells; host or cells: CHO K1 (constitutively expressing modified aequorin; co-transfected with promiscuous G-alpha-16)
T2 sequence (P30518 whole entry): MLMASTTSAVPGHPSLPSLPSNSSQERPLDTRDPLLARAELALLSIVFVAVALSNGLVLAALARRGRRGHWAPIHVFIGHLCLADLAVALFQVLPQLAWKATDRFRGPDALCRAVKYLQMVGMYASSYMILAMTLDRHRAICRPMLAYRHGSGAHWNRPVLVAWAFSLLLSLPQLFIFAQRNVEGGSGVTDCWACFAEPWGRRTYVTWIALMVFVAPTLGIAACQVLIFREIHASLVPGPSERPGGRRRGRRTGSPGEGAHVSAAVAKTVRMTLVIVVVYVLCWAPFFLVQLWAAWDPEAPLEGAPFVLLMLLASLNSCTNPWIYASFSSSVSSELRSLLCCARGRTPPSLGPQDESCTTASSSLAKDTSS
The test is described as above. In kind it is cell-based. The following applies: CHO cell line transfected with the human V2 receptor (and Gα16); agonist [Arg8]-vasopressin; read-out: IC50 hV2.
Text: as §1, §2, §3, §4

T1 sequence (P37288 whole entry): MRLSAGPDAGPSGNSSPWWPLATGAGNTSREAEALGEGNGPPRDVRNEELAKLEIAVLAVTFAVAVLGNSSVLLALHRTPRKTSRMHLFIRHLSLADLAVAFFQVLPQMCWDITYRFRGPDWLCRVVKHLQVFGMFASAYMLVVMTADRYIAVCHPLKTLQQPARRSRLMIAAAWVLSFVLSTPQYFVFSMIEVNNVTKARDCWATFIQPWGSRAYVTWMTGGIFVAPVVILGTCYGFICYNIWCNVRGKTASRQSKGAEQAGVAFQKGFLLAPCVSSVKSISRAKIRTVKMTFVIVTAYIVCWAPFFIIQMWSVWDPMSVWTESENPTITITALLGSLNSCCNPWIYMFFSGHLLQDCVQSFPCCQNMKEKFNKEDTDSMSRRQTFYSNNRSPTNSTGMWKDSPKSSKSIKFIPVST

For the molecule `NC(=O)OCC(NC(=O)Cn1nc(-c2ccc(Cl)cc2)n(Cc2ccccc2F)c1=O)c1ccccc1C(F)(F)F` (single isomer, unassigned) [Example 191, 2-({[3-(4-Chlorophenyl)-4-(2-fluorobenzyl)-5-oxo-4,5-dihydro-1H-1,2,4-triazol-1-yl]acetyl}amino)-2-[2-(trifluoromethyl)phenyl]ethyl carbamate], the 50% inhibitory concentration (IC50) on human V1a receptor is 2.3 nM; on human V2 receptor it was 24.8 nM.

For `NC(=O)OCC(NC(=O)Cn1nc(-c2ccc(Cl)cc2)n(C[C@H](O)C(F)(F)F)c1=O)c1cccc(Cl)c1Cl` (single isomer, unassigned) [Example 203], the results for the IC50 on human V1a receptor and at human V2 receptor were 2.7 nM and 4.4 nM, respectively.

For the molecule `O=C(Cn1nc(-c2ccc(Cl)cc2)n(C[C@H](O)C(F)(F)F)c1=O)NC(C[N+](=O)[O-])c1cccc(C(F)(F)F)c1` (single isomer, unassigned; diastereomer i) [Example 2], the IC50 at human V1a receptor came to 7.6 nM; on human V2 receptor, 2.6 nM.

For the molecule `O=C(Cn1nc(-c2ccc(Cl)cc2)n(C[C@H](O)C(F)(F)F)c1=O)NC(CO)c1ccccc1C(F)(F)F` (single isomer, unassigned; diastereomer i) [Example 39], the results for the IC50 at human V1a receptor and at human V2 receptor were 1.4 nM and 7.8 nM, respectively.

As to `NCC(NC(=O)Cn1nc(-c2ccc(Cl)cc2)n(C[C@H](O)C(F)(F)F)c1=O)c1ccccc1C(F)(F)F` (single isomer, unassigned; diastereomer ii) [Example 14], the results for the IC50 at human V1a receptor and on human V2 receptor were 1 nM and 8.9 nM, respectively.

In the case of `CS(=O)(=O)NCC(NC(=O)Cn1nc(-c2ccc(Cl)cc2)n(C[C@H](O)C(F)(F)F)c1=O)c1cccc(C(F)(F)F)c1` (single isomer, unassigned; diastereomer ii) [Example 24], the IC50 at human V1a receptor came out at 4.5 nM; at human V2 receptor it was 1.3 nM.

As for `CS(=O)(=O)NCC(NC(=O)Cn1nc(-c2ccc(Cl)cc2)n(C[C@H](O)C(F)(F)F)c1=O)c1ccccc1C(F)(F)F` (single isomer, unassigned; diastereomer ii) [Example 26], the IC50 on human V1a receptor came out at 0.9 nM; on human V2 receptor it was 3.2 nM.

For `CCS(=O)(=O)NCC(NC(=O)Cn1nc(-c2ccc(Cl)cc2)n(C[C@H](O)C(F)(F)F)c1=O)c1cccc(Cl)c1Cl` (single isomer, unassigned; diastereomer ii) [Example 34], the values for the IC50 on human V1a receptor and at human V2 receptor were 3 nM and 1.5 nM, respectively.

With `C[C@@](CO)(NC(=O)Cn1nc(-c2ccc(Cl)cc2)n(C[C@H](O)C(F)(F)F)c1=O)c1cccc(C(F)(F)F)c1` [Example 44, 2-{3-(4-Chlorophenyl)-5-oxo-4-[(2S)-3,3,3-trifluoro-2-hydroxypropyl]-4,5-dihydro-1H-1,2,4-triazol-1-yl}-N-{(2R)-1-hydroxy-2-[3-(trifluoromethyl)phenyl]propan-2-yl}acetamide], the IC50 on human V1a receptor worked out at 44 nM; on human V2 receptor, 1.7 nM.

As to `C[C@@](COC(N)=O)(NC(=O)Cn1nc(-c2ccc(Cl)cc2)n(C[C@H](O)C(F)(F)F)c1=O)c1cccc(C(F)(F)F)c1` [Example 45, (2R)-2-[({3-(4-Chlorophenyl)-5-oxo-4-[(2S)-3,3,3-trifluoro-2-hydroxypropyl]-4,5-dihydro-1H-1,2,4-triazol-1-yl}acetyl)amino]-2-[3-(trifluoromethyl)phenyl]propyl carbamate], the IC50 on human V1a receptor was found to be 5.5 nM; on human V2 receptor it was 2.5 nM.

On to `NC(=O)OCC(NC(=O)Cn1nc(-c2ccc(Cl)cc2)n(C[C@H](O)C(F)(F)F)c1=O)c1ccccc1Cl` (stereo partly drawn) [Example 53, 2-(2-Chlorophenyl)-2-[({3-(4-chlorophenyl)-5-oxo-4-[(2S)-3,3,3-trifluoro-2-hydroxypropyl]-4,5-dihydro-1H-1,2,4-triazol-1-yl}acetyl)amino]ethyl carbamate], for which the values for the half-maximal inhibitory concentration (IC50) at human V1a receptor and on human V2 receptor were 1.5 nM and 4.9 nM, respectively.

With `O=C(Cn1nc(-c2ccc(Cl)cc2)n(C[C@H](O)C(F)(F)F)c1=O)N[C@@H](CCO)c1ccccc1C(F)(F)F` [Example 69, 2-{3-(4-Chlorophenyl)-5-oxo-4-[(2S)-3,3,3-trifluoro-2-hydroxypropyl]-4,5-dihydro-1H-1,2,4-triazol-1-yl}-N-{(1S)-3-hydroxy-1-[2-(trifluoromethyl)phenyl]propyl}acetamide], the IC50 at human V1a receptor turned out to be 1.6 nM; at human V2 receptor, 9.7 nM.

With `NC(=O)OCC[C@H](NC(=O)Cn1nc(-c2ccc(Cl)cc2)n(C[C@H](O)C(F)(F)F)c1=O)c1ccccc1C(F)(F)F` [Example 70, (3S)-3-[({3-(4-Chlorophenyl)-5-oxo-4-[(2S)-3,3,3-trifluoro-2-hydroxypropyl]-4,5-dihydro-1H-1,2,4-triazol-1-yl}acetyl)amino]-3-[2-(trifluoromethyl)phenyl]propyl carbamate], the half-maximal inhibitory concentration (IC50) at human V1a receptor stood at 1.6 nM; at human V2 receptor, 9.9 nM.

In the case of `Cc1cccc([C@H](CO)NC(=O)Cn2nc(-c3ccc(Cl)cc3)n(C[C@H](O)C(F)(F)F)c2=O)c1C` [Example 74, 2-{3-(4-Chlorophenyl)-5-oxo-4-[(2S)-3,3,3-trifluoro-2-hydroxypropyl]-4,5-dihydro-1H-1,2,4-triazol-1-yl}-N-[(1R)-1-(2,3-dimethylphenyl)-2-hydroxyethyl]acetamide], the IC50 on human V1a receptor turned out to be 21.6 nM; on human V2 receptor it was 2.4 nM.

As for `N#Cc1cccc([C@H](CO)NC(=O)Cn2nc(-c3ccc(Cl)cc3)n(C[C@H](O)C(F)(F)F)c2=O)c1` [Example 75, 2-{3-(4-Chlorophenyl)-5-oxo-4-[(2S)-3,3,3-trifluoro-2-hydroxypropyl]-4,5-dihydro-1H-1,2,4-triazol-1-yl}-N-[(1R)-1-(3-cyanophenyl)-2-hydroxyethyl]acetamide], the IC50 at human V1a receptor came out at 513 nM; on human V2 receptor, 59.2 nM.

Consider `O=C(Cn1nc(-c2ccc(Cl)cc2)n(C[C@H](O)C(F)(F)F)c1=O)NC(CC(F)(F)F)c1ccccc1` (stereo partly drawn) [Example 90, 2-{3-(4-Chlorophenyl)-5-oxo-4-[(2S)-3,3,3-trifluoro-2-hydroxypropyl]-4,5-dihydro-1H-1,2,4-triazol-1-yl}-N-(3,3,3-trifluoro-1-phenylpropyl)acetamide], for which the half-maximal inhibitory concentration (IC50) on human V1a receptor is 88.6 nM; at human V2 receptor, 231 nM.

For `O=C(Cn1nc(-c2ccc(Cl)cc2)n(C[C@H](O)C(F)(F)F)c1=O)NC(c1ccccc1)C(O)C(F)(F)F` (stereo partly drawn) [Example 94, 2-{3-(4-Chlorophenyl)-5-oxo-4-[(2S)-3,3,3-trifluoro-2-hydroxypropyl]-4,5-dihydro-1H-1,2,4-triazol-1-yl}-N-(3,3,3-trifluoro-2-hydroxy-1-phenylpropyl)acetamide], the IC50 at human V1a receptor came to 251 nM; at human V2 receptor, 72.3 nM.

Regarding `O=C(Cn1nc(-c2ccc(Cl)cc2)n(C[C@H](O)C(F)(F)F)c1=O)NC(CO)c1cccc(F)c1F` (stereo partly drawn) [Example 95, 2-{3-(4-Chlorophenyl)-5-oxo-4-[(2S)-3,3,3-trifluoro-2-hydroxypropyl]-4,5-dihydro-1H-1,2,4-triazol-1-yl}-N-[1-(2,3-difluorophenyl)-2-hydroxyethyl]acetamide], the figures for the IC50 at human V1a receptor and on human V2 receptor were 57.3 nM and 19.2 nM, respectively.

Turning to `O=C(Cn1nc(-c2ccc(Cl)cc2)n(C[C@H](O)C(F)(F)F)c1=O)NC(CO)c1cccc(C(F)F)c1` (stereo partly drawn) [Example 157, 2-{3-(4-Chlorophenyl)-5-oxo-4-[(2S)-3,3,3-trifluoro-2-hydroxypropyl]-4,5-dihydro-1H-1,2,4-triazol-1-yl}-N-{1-[3-(difluoromethyl)phenyl]-2-hydroxyethyl}acetamide], the half-maximal inhibitory concentration (IC50) on human V1a receptor was found to be 12.4 nM; at human V2 receptor, 5.1 nM.

Take `NS(=O)(=O)OCC(NC(=O)Cn1nc(-c2ccc(Cl)cc2)n(C[C@H](O)C(F)(F)F)c1=O)c1cccc(C(F)(F)F)c1` (stereo partly drawn) [Example 159, 2-[({3-(4-Chlorophenyl)-5-oxo-4-[(2S)-3,3,3-trifluoro-2-hydroxypropyl]-4,5-dihydro-1H-1,2,4-triazol-1-yl}acetyl)amino]-2-[3-(trifluoromethyl)phenyl]ethyl sulphamate]: the IC50 on human V1a receptor came to 4.3 nM; on human V2 receptor it was 1.8 nM.

With `CN(C(=O)Cn1nc(-c2ccc(Cl)cc2)n(C[C@H](O)C(F)(F)F)c1=O)C(CO)c1cccc(C(F)(F)F)c1` (stereo partly drawn) [Example 163, 2-{3-(4-Chlorophenyl)-5-oxo-4-[(2S)-3,3,3-trifluoro-2-hydroxypropyl]-4,5-dihydro-1H-1,2,4-triazol-1-yl}-N-{2-hydroxy-1-[3-(trifluoromethyl)phenyl]ethyl}-N-methylacetamide], the IC50 was 594 nM on human V1a receptor and 7.7 nM at human V2 receptor.

As a reminder, the IC50 is the concentration at which inhibition is half-maximal.
